The values below come from article PMC3380439 (Bioorganic & medicinal chemistry, 2011).

Data set [1] can be described thus: Critical micelle concentration by tensiometer measurements in water. Conditions: for CMC: in water, triplicate single values. Type of data set: physicochemical.
The test system of the next data set is herpes-simplex virus 2. Conditions: ref xxi; cited from earlier work.
Another data set deals with bacteriophage φ6. Conditions: ref xxi; cited from earlier work.
Data set [2] concerns simian immunodeficiency virus (SIV). The conditions noted are these: ref xxii; cited from earlier work.

Where “and” joins values, the source holds several entries; their conditions need not be identical. Equal entries are not always repeated. A value given as a limit tells only on which side of the number the result lay.

As for `CCCCCCCCCCCCCCCC(=O)OC[C@H]1O[C@H](O[C@@H]2O[C@H](CO)[C@@H](O)[C@H](O)[C@H]2O)[C@@H](O)[C@@H](O)[C@@H]1O` [Compound 6, β-D-Glucopyranosyl-(1→1)-6-O-palmitate-α-D-mannopyranoside], the CMC in data set [1] was 10.5 µM and 12 µM. Still for that read-out and setting: then `CCCCCCCCCCCCCCCC(=O)OC[C@H]1O[C@H](OC)[C@@H](O)[C@@H](O)[C@@H]1O` [Compound 7, Methyl-6-O-palmitate-α-D-mannopyranoside], with 13.5 µM and 13.7 µM. `CCCCCCCCCCCCCCCC(=O)O[C@@H]1[C@H](O)[C@@H](O[C@@H]2O[C@H](CO)[C@H](O)[C@H](O)[C@H]2O)O[C@H](CO)[C@H]1O` [Compound 4, β-D-Galactopyranosyl-(1→1)-3-O-palmitate-α-D-mannopyranoside] showed a CMC in data set [1] of 12.5 µM.

The compound `CCCCCCCCCCCCCCCC(=O)OC[C@H]1O[C@H](O[C@@H]2O[C@H](CO)[C@H](O)[C@H](O)[C@H]2O)[C@@H](O)[C@@H](O)[C@@H]1O` [Compound 3, β-D-Galactopyranosyl-(1→1)-6-O-palmitate-α-D-mannopyranoside] showed a CMC in data set [1] of 10.5 µM.

As to 1-O-lauryl-glycerol [GML], the “activity against herpes-simplex virus 2” value in the data set with herpes-simplex virus 2 is on record as “low micromolar activity”. For the same compound, the “activity against bacteriophage φ6” value in the data set with bacteriophage φ6 is reported as “low micromolar activity”. Further, the “prevention of SIV in rhesus macaque model” value in data set [2] is recorded as “prevent simian immunodeficiency virus (SIV)”. With `CCCCCCCCCCCCCCCC(=O)OC[C@H]1O[C@H](OC)[C@@H](O)[C@@H](O)[C@@H]1OC(=O)CCCCCCCCCCCCCCC` [Compound 8, Methyl-4,6-di-O-palmitate-α-D-mannopyranoside], in data set [1] (interpretation of surface tension data), the “concentration above which precipitates rather than micelles form in water” value is greater than 500 nM.
